Assay results taken from US7838256B2, “Assay and kit for drug efflux transporter activity” (Board of Regents of the University of Nebraska, priority 2007, dated 2010).

Columns and labels:
[1] = biological target: T1, MDR1 (Homo sapiens, UniProt P08183)
[2] = system: MDR proteins; test: Intracellular accumulation of calcein in MDCK-MDR1 cells in the presence of therapeutic agents and trypan blue; conditions: for Area Under the Curve ± SEM (intracellular calcein accumulation): monitored for 300 minutes; for interaction with MDR proteins (area under the curve of calcein vs control): summary statement
Experimental: Intracellular accumulation was monitored for 300 minutes in a 96-well format and the area under curve for each treatment was determined. The larger the area under the curve, the greater the intracellular accumulation of calcein and, by extension, the greater the influence of the therapeutic agent on MDR protein activity.

[3] = system: MDR proteins; test: Intracellular accumulation of fluorescent drug efflux probes in BBMEC cells with trypan blue; assay type: cell-based, bovine; conditions: calcein-AM 1 μM, BCECF-AM 1 μM, rhodamine 123 3.2 μM, 0.04% or 0.1% trypan blue
Experimental: (§1) FIGS. 1A-1C show intracellular accumulation of calcein-AM (1 μM) in Madin-Darby canine kidney cells transfected with human MDR1 gene (MDCK-MDR1; FIG. 1A); human, […], colon adenocarcinoma cells (Caco2; FIG. 1B); and bovine brain microvessel endothelial cells (BBMEC, FIG. 1C) exposed to MDR1 inhibitor GF120918, MRP inhibitor indomethacin, or GF120918 in combination with indomethacin. Trypan blue (0.04%) was used to quench extracellular fluorescence.
(§2) FIGS. 2A-2C show intracellular accumulation of BCECF-AM (1 μM) in MDCK-MDR1 (FIG. 2A), Caco2 (FIG. 2B), and BBMEC (FIG. 2C) cells exposed to MDR1 inhibitor GF120918, MRP inhibitor indomethacin, or GF120918 in combination with indomethacin. Trypan blue (0.04%) was used to quench extracellular fluorescence.
(§3) FIGS. 3A-3C show intracellular accumulation of rhodamine 123 (3.2 μM) in MDCK-MDR1 (FIG. 3A), Caco2 (FIG. 3B), and BBMEC (FIG. 3C) cells exposed to MDR1 inhibitor GF120918, MRP inhibitor indomethacin, or GF120918 in combination with indomethacin. Trypan blue (0.1%) was used to quench extracellular fluorescence. […]

[4] = system: MDR proteins; test: Intracellular accumulation of fluorescent drug efflux probes in Caco2 cells with trypan blue; assay type: cell-based, human; conditions: calcein-AM 1 μM, BCECF-AM 1 μM, rhodamine 123 3.2 μM, 0.04% or 0.1% trypan blue
Experimental: as §1, §2, §3

[5] = system: MDR proteins; test: Intracellular accumulation of fluorescent drug efflux probes in MDCK-MDR1 cells with trypan blue; assay type: cell-based, human; conditions: calcein-AM 1 μM, BCECF-AM 1 μM, rhodamine 123 3.2 μM, 0.04% or 0.1% trypan blue
[6] = biological target: T1, MDR1; conditions: isolated membranes; Homolya et al. (1993); read-out: Kd as activator of MDR1; cited from earlier work

T1 sequence (P08183 whole entry, species assumed): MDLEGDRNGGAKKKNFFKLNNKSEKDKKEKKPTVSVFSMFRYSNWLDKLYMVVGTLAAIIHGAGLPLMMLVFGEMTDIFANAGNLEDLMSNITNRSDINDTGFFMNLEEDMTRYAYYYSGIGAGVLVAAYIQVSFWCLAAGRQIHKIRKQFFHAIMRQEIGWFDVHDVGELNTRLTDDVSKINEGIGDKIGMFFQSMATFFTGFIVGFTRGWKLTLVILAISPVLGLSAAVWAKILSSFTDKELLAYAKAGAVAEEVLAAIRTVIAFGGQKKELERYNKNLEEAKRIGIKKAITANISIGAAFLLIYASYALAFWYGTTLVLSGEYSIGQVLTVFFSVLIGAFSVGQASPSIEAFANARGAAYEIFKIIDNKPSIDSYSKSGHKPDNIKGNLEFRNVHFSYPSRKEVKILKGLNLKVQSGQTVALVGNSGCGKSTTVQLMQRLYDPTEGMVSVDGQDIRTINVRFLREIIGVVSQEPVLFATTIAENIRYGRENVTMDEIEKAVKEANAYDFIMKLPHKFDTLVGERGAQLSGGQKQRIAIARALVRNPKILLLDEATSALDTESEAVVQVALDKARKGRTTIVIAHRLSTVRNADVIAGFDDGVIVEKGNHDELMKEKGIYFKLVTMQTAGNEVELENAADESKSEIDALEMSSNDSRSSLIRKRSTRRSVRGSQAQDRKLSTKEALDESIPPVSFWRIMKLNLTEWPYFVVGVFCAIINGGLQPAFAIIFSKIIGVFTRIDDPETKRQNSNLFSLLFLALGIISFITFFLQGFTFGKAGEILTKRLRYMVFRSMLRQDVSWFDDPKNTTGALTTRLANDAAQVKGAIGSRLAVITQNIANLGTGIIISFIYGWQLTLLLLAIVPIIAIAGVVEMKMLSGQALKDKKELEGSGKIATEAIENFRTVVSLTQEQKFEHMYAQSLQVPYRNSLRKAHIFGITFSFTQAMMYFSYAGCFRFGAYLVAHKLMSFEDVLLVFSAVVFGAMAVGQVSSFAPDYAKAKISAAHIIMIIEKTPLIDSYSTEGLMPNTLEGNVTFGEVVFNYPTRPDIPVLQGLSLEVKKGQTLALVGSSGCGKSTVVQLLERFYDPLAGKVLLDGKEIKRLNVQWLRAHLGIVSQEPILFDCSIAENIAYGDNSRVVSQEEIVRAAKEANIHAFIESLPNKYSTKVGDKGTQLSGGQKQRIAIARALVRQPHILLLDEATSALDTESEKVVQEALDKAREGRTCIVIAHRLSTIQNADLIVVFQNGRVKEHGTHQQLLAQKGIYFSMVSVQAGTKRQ

Compound	intracellular accumulation of calcein-AM, BCECF and rhodamine 123 [3]	intracellular accumulation of calcein-AM, BCECF and rhodamine 123 [4]	intracellular accumulation of calcein-AM, BCECF and rhodamine 123 [5]	Ratio to Control (area under the curve) ([2]; 1 μM)	Area Under the Curve ± SEM (intracellular calcein accumulation) ([2]; 1 μM)	Ratio to Control (area under the curve) ([2]; 10 μM)	Area Under the Curve ± SEM (intracellular calcein accumulation) ([2]; 10 μM)	Ratio to Control (area under the curve) ([2]; 100 μM)	Area Under the Curve ± SEM (intracellular calcein accumulation) ([2]; 100 μM)	interaction with MDR proteins (area under the curve of calcein vs control) [2]	further results
COc1cc2c(cc1OC)CN(CCc1ccc(NC(=O)c3cccc4c(=O)c5cccc(OC)c5[nH]c34)cc1)CC2 [GF120918]	increase in the intracellular accumulation	increase in the intracellular accumulation	increase in the intracellular accumulation								initial fluorescence (uptake of rhodamine 123 at a single time point) [1]: greater initial fluorescence; Ratio to Control (area under the curve) ([2]; 3.2 μM): 8.81; Area Under the Curve ± SEM (intracellular calcein accumulation) ([2]; 3.2 μM): 22.57 ± 0.729
calcein-acetoxy-methylester [Calcein-AM]											Kd [6]: ≤ 1000 nM
O=c1[nH]cc(F)c(=O)[nH]1 [5-Fluorouracil, 5-fluorouracil]				1.20	3.07 ± 0.217	1.30	3.33 ± 0.269	0.87	2.24 ± 0.322		
Cc1nc2n(c(=O)c1CCN1CCC(c3noc4cc(F)ccc34)CC1)CCCC2 [Risperidone, risperidone]				1.53	3.92 ± 0.412	2.19	5.62 ± 0.259	6.64	17.02 ± 0.310	strong interaction with MDR proteins	
CC(C)CN(C[C@@H](O)[C@H](Cc1ccccc1)NC(=O)O[C@H]1CCOC1)S(=O)(=O)c1ccc(N)cc1 [amprenavir]					4.06 ± 0.518		5.44 ± 0.357		16.25 ± 0.798	strong interaction with MDR proteins	
COc1ccc2c(c1)c(CC(=O)O)c(C)n2C(=O)c1ccc(Cl)cc1 [indomethacin]	increase in the intracellular accumulation	increase in the intracellular accumulation	increase in the intracellular accumulation								
